Reference: ChEMBL document CHEMBL4219086, “Development of benzoxazole deoxybenzoin oxime and acyloxylamine derivatives targeting innate immune sensors and xanthine oxidase for treatment of gout” (Bioorg Med Chem, 2018)
Calls of active or inactive are those of the source. No cut-off for these calls is given here.

What was measured:
Toll-like receptor 4 = Toll-like receptor 4 (Homo sapiens, UniProt O00206); experiment: Inhibition of human TLR4 signaling expressed in HEK-Blue cells co-expressing MD2/CD14 assessed as reduction in LPS-induced NF-kappaB activation-mediated SEAP production preincubated for 2 hrs followed by LPS stimulation for 20 hrs by colorimetric assay; type: cell-based
[1] = target: Xanthine dehydrogenase/oxidase (Homo sapiens, UniProt P47989); experiment: Inhibition of Xanthine oxidase (unknown origin) using xanthine as substrate preincubated for 1 to 5 mins followed by substrate addition
[2] = target: NACHT, LRR and PYD domains-containing protein 3 (Homo sapiens, UniProt Q96P20); experiment: Inhibition of NLRP3 inflammasome in human THP1 cells assessed as reduction in MSU-induced IL-1beta production preincubated for 1 hr followed by MSU stimulation measured after 6 hrs; type: cell-based
Mus musculus [3] = experiment: Hypouricemic effect in Kunming mouse assessed as inhibition of hepatic XOD activity at 10 mg/kg, po measured after 1 hr relative to control; type: organism-based
Mus musculus [4] = species: Mus musculus; conditions: Kunming, 10 mg/kg
Description: Anti-hyperuricemic effect in Kunming mouse assessed as inhibition of potassium oxonate-induced serum uric acid level at 10 mg/kg, po treated 1 hr post potassium oxonate addition measured after 1 hr by phosphotungstic acid method relative to control

Mus musculus [5] = experiment: In vivo inhibition of XOD activity in liver of Kunming mouse model of potassium oxonate-induced hyperuricemia at 10 mg/kg, po treated 1 hr post potassium oxonate addition measured after 1 hr relative to control; type: functional
Rattus norvegicus [6] = experiment: Inhibition of MSU-induced IL-1beta level in synovial homogenate of acute gouty arthritis Sprague-Dawley rat model at 10 mg/kg, po qd pretreated via gavage for 5 days followed by MSU treatment at 1 hr post last dose measured up to 24 hrs by ELISA; type: functional, organism-based
Rattus norvegicus [7] = experiment: Inhibition of MSU-induced IL-1beta level in serum of acute gouty arthritis Sprague-Dawley rat model at 10 mg/kg, po qd pretreated via gavage for 5 days followed by MSU treatment at 1 hr post last dose measured up to 24 hrs by ELISA; type: functional, organism-based
Rattus norvegicus [8] = experiment: Inhibition of MSU-induced p65 NFkappaB protein level in synovial homogenate of acute gouty arthritis Sprague-Dawley rat model at 10 mg/kg, po qd pretreated via gavage for 5 days followed by MSU treatment at 1 hr post last dose measured up to 24 hrs by Western blot method; type: functional, organism-based
Rattus norvegicus [9] = experiment: (§1) Antiarthritic activity in MSU-induced acute gouty arthritis Sprague-Dawley rat model assessed as reduction in ankle swelling by measuring perimeter of ankle at 10 mg/kg, po qd pretreated via gavage for 5 days followed by MSU treatment at 1 hr post last dose measured after 12 hrs (reference value: 3.51 +/- 0.52 cm); type: functional
Rattus norvegicus [10] = experiment: Inhibition of MSU-induced TNFalpha level in serum of acute gouty arthritis Sprague-Dawley rat model at 10 mg/kg, po qd pretreated via gavage for 5 days followed by MSU treatment at 1 hr post last dose measured up to 24 hrs by ELISA; type: functional, organism-based
Rattus norvegicus [11] = experiment: as §1, with “24” for “12”, “3.35” for “3.51”, “0.5” for “0.52”; type: functional
Rattus norvegicus [12] = experiment: Inhibition of MSU-induced phosphorylated IkappaB protein level in synovial homogenate of acute gouty arthritis Sprague-Dawley rat model at 10 mg/kg, po qd pretreated via gavage for 5 days followed by MSU treatment at 1 hr post last dose measured up to 24 hrs by Western blot method; type: functional, organism-based
Rattus norvegicus [13] = experiment: Inhibition of MSU-induced NLRP3 protein level in synovial homogenate of acute gouty arthritis Sprague-Dawley rat model at 10 mg/kg, po qd pretreated via gavage for 5 days followed by MSU treatment at 1 hr post last dose measured up to 24 hrs by Western blot method; type: functional, organism-based
Rattus norvegicus [14] = experiment: Inhibition of MSU-induced TLR4 protein level in synovial homogenate of acute gouty arthritis Sprague-Dawley rat model at 10 mg/kg, po qd pretreated via gavage for 5 days followed by MSU treatment at 1 hr post last dose measured up to 24 hrs by Western blot method; type: functional, organism-based
Rattus norvegicus [15] = experiment: as §1, with “4” for “12”, “3.18” for “3.51”, “0.64” for “0.52”; type: functional
Rattus norvegicus [16] = experiment: Inhibition of MSU-induced TNFalpha level in synovial homogenate of acute gouty arthritis Sprague-Dawley rat model at 10 mg/kg, po qd pretreated via gavage for 5 days followed by MSU treatment at 1 hr post last dose measured up to 24 hrs by ELISA; type: functional, organism-based
Rattus norvegicus [17] = experiment: as §1, with “immediately” for “after 12 hrs”, “2.64” for “3.51”, “0.81” for “0.52”; type: functional
Rattus norvegicus [18] = experiment: as §1, with “2” for “12”, “2.82” for “3.51”, “0.75” for “0.52”; type: functional
Rattus norvegicus [19] = experiment: Inhibition of MSU-induced caspase-1 protein level in synovial homogenate of acute gouty arthritis Sprague-Dawley rat model at 10 mg/kg, po qd pretreated via gavage for 5 days followed by MSU treatment at 1 hr post last dose measured up to 24 hrs by Western blot method; type: functional, organism-based
Rattus norvegicus [20] = experiment: Inhibition of MSU-induced ASC protein level in synovial homogenate of acute gouty arthritis Sprague-Dawley rat model at 10 mg/kg, po qd pretreated via gavage for 5 days followed by MSU treatment at 1 hr post last dose measured up to 24 hrs by Western blot method; type: functional, organism-based
Rattus norvegicus [21] = experiment: Inhibition of MSU-induced MyD88 protein level in synovial homogenate of acute gouty arthritis Sprague-Dawley rat model at 10 mg/kg, po qd pretreated via gavage for 5 days followed by MSU treatment at 1 hr post last dose measured up to 24 hrs by Western blot method; type: functional, organism-based
Rattus norvegicus [22] = experiment: as §1, with “8” for “12”, “3.27” for “3.51”, “0.56” for “0.52”; type: functional

Sequence of NACHT, LRR and PYD domains-containing protein 3 (Q96P20 whole entry, the tested form may be a part): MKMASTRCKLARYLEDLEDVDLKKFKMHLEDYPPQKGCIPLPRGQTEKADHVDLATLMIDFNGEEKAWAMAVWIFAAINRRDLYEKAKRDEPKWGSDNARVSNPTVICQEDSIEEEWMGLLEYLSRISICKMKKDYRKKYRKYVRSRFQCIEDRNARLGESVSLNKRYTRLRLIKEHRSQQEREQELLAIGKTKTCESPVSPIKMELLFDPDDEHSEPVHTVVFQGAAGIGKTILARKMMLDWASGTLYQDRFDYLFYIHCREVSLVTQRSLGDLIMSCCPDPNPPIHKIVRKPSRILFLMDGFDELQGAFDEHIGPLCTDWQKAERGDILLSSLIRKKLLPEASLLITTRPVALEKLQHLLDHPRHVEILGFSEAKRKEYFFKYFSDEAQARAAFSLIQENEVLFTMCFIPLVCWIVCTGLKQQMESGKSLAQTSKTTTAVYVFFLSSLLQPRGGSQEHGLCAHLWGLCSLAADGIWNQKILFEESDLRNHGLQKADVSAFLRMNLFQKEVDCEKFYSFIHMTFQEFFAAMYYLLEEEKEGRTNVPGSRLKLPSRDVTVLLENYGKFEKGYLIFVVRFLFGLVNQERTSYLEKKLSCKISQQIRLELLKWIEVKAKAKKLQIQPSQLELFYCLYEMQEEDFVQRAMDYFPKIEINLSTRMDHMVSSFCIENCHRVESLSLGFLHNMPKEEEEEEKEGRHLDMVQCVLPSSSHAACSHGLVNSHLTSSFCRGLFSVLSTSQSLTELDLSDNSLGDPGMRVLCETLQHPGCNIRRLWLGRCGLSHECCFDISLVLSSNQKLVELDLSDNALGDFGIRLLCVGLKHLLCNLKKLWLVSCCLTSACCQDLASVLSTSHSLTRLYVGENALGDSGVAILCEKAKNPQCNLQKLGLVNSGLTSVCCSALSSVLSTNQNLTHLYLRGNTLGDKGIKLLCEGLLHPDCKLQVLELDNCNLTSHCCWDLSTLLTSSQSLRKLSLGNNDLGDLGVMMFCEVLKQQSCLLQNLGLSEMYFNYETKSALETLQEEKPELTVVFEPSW
Sequence of Xanthine dehydrogenase/oxidase (P47989 whole entry, the tested form may be a part): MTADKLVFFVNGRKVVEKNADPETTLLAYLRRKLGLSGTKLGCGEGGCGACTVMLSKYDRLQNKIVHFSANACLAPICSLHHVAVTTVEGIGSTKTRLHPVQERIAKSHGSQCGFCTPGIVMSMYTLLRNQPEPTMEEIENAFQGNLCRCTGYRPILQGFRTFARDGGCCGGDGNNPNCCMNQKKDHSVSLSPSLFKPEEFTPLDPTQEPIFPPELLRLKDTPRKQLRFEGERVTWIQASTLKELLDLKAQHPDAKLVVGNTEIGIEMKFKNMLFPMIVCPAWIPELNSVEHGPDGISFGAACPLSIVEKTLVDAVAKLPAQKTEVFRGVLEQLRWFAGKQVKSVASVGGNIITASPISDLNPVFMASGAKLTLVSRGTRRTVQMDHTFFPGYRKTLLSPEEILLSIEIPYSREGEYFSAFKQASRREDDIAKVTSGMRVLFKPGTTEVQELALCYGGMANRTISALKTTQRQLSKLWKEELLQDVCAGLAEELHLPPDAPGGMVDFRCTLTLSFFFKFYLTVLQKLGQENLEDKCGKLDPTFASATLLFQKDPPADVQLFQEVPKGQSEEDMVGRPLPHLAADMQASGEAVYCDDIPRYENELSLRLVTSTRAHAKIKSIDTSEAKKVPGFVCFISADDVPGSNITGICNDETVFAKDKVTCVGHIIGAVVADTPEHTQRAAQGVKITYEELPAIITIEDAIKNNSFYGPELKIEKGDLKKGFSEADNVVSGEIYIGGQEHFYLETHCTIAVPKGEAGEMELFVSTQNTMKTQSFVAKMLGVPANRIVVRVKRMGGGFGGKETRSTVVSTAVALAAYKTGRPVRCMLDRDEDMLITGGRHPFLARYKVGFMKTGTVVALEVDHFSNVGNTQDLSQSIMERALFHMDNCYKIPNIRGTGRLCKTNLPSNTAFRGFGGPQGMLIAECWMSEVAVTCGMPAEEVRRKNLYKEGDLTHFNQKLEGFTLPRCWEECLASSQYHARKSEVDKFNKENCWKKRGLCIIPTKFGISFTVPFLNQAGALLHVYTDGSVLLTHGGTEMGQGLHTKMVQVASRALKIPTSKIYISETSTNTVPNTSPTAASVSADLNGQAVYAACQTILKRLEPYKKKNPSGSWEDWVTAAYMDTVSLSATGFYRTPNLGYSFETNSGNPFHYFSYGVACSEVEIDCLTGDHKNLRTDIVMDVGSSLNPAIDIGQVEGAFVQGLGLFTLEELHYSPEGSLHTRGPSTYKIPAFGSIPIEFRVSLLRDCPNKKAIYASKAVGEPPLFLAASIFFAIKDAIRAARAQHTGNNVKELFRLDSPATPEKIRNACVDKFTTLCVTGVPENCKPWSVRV
Sequence of Toll-like receptor 4 (O00206 whole entry): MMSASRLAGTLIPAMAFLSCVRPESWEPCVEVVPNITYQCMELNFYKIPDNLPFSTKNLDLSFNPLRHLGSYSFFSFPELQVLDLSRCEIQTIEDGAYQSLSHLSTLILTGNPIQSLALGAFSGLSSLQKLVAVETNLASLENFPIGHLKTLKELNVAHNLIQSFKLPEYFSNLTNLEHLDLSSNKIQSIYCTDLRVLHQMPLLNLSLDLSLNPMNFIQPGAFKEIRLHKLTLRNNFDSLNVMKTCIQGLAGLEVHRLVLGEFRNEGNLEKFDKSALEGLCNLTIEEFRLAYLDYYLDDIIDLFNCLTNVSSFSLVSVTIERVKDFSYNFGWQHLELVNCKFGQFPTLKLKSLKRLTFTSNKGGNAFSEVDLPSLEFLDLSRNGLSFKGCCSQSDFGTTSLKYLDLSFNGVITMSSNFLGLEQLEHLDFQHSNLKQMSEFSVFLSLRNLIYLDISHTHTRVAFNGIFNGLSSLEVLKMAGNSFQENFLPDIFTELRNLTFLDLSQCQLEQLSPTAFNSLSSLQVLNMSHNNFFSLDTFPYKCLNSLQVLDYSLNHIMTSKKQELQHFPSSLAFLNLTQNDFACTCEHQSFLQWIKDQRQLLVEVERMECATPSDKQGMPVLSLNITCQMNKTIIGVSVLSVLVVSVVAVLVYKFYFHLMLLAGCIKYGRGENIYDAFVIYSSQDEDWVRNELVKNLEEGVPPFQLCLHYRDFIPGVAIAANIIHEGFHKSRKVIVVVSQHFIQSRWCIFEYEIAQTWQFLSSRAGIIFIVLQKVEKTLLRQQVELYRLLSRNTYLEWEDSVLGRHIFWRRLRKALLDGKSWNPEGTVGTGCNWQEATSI

**Q.** For Cc1ccc2nc(/C(Cc3ccccc3)=N/O)oc2c1, which IC50 (Toll-like receptor 4) is on record?
**A.** Its IC50 is 19.3 µM.

**Q.** How did the IC50 [1] turn out when O/N=C(\Cc1ccc(F)cc1)c1nc2ccc(Cl)cc2o1 was run?
**A.** The IC50 was over 100 µM.

**Q.** How did the IC50 [1] turn out when O/N=C(\Cc1ccc(F)cc1)c1nc2cc(Cl)ccc2o1 was run?
**A.** Its IC50 is over 100 µM.

**Q.** What does the source list for COc1ccccc1C(=O)O/N=C(\C)c1nc2ccccc2o1?
**A.** IC50 [2]: 39.5 µM; IC50 (Toll-like receptor 4): 25.9 µM; IC50 [1]: 15.2 µM

**Q.** For COc1ccc(C/C(=N\O)c2nc3ccc(Cl)cc3o2)cc1, which IC50 [2] is on record?
**A.** Its IC50 is 5.72 µM.

**Q.** And the IC50 (Toll-like receptor 4)?
**A.** Its IC50 is 5.42 µM.

**Q.** What about the IC50 [1] of the same molecule?
**A.** Its IC50 is 17.8 µM.

**Q.** Which IC50 [2] does the source give for O=C(/C=C/c1ccc(O)cc1)c1ccc(O)cc1O [ISOLIQUIRITIGENIN] here?
**A.** The IC50 was 1.54 µM.

**Q.** For O/N=C(\Cc1ccccc1)c1nc2ccc(Br)cc2o1, which IC50 [1] is on record?
**A.** Its IC50 is over 100 µM.

**Q.** What does the source list for Oc1ncnc2[nH]ncc12 [ALLOPURINOL]?
**A.** inhibition at 10 mg/kg (Mus musculus [3]): 27.9%; inhibition (Mus musculus [4]): Active; inhibition in vivo at 10 mg/kg (Mus musculus [5]): 47.1%

**Q.** How did the IC50 (Toll-like receptor 4) turn out when CCOC(=O)C1=CCCC[C@H]1S(=O)(=O)Nc1ccc(F)cc1Cl [RESATORVID] was run?
**A.** Its IC50 is 0.68 µM.

**Q.** For Cc1ccc2oc(/C(Cc3ccc(F)cc3)=N/O)nc2c1, which IC50 (Toll-like receptor 4) is on record?
**A.** The IC50 was 45.7 µM.

**Q.** With O/N=C(\Cc1ccc(F)cc1)c1nc2ccc(Br)cc2o1 as the molecule, how does the IC50 [1] read?
**A.** Its IC50 is over 100 µM.

**Q.** Which inhibition (Rattus norvegicus [6]) does the source give for COc1cc2c(c(OC)c1OC)-c1ccc(OC)c(=O)cc1[C@@H](NC(C)=O)CC2 [COLCHICINE] here?
**A.** The inhibition was “Active”.

**Q.** And the inhibition (Rattus norvegicus [7])?
**A.** The inhibition was “Active”.

**Q.** And the inhibition (Rattus norvegicus [8])?
**A.** Its inhibition is “Active”.

**Q.** And the Activity (Rattus norvegicus [9])?
**A.** The Activity was 2.8 cm.

**Q.** And the inhibition (Rattus norvegicus [10])?
**A.** The inhibition was “Active”.

**Q.** What about the Activity (Rattus norvegicus [11]) of the same molecule?
**A.** The Activity was 2.79 cm.

**Q.** And the inhibition (Rattus norvegicus [12])?
**A.** Its inhibition is “Active”.

**Q.** What about the inhibition (Rattus norvegicus [13]) of the same molecule?
**A.** The inhibition was “Active”.

**Q.** And the inhibition (Rattus norvegicus [14])?
**A.** Its inhibition is “Active”.

**Q.** And the Activity (Rattus norvegicus [15])?
**A.** Its Activity is 2.81 cm.

**Q.** What about the inhibition (Rattus norvegicus [16]) of the same molecule?
**A.** Its inhibition is “Active”.

**Q.** What about the Activity (Rattus norvegicus [17]) of the same molecule?
**A.** Its Activity is 2.49 cm.

**Q.** What about the Activity (Rattus norvegicus [18]) of the same molecule?
**A.** Its Activity is 2.73 cm.

**Q.** What about the inhibition (Rattus norvegicus [19]) of the same molecule?
**A.** Its inhibition is “Active”.

**Q.** And the inhibition (Rattus norvegicus [20])?
**A.** Its inhibition is “Active”.

**Q.** What about the inhibition (Rattus norvegicus [21]) of the same molecule?
**A.** The inhibition was “Active”.

**Q.** And the Activity (Rattus norvegicus [22])?
**A.** Its Activity is 2.77 cm.
